Strand notation (5' to 3'): a small letter for the sugar, then the base; units joined by * are phosphorothioate-linked, units joined directly phosphodiester-linked; [ ] holds rarer units or linkages, { } end groups; capitals alone tell only the bases. e = 2'-O-(2-methoxyethyl) (MOE); [5mC] = 5-methylcytosine; d = 2'-deoxy (DNA)
How the values were obtained:
PTP1B mRNA = assay: Dose response for human PTP1B in HuVEC cells, PPS 198 and PPS 3000 (Tables 86, 87); format: cell-based
Description: Human vascular endothelial (HuVEC) cells were plated at a density of 5000 cells per well and treated as described herein with nM concentrations of short antisense compound as indicated in Table 86. After the treatment period, RNA was isolated from the cells and PTP1B mRNA levels were measured by quantitative real-time PCR, as described herein. PTP1B mRNA levels were adjusted according to total RNA content as measured by RIBOGREEN®. Two different human PTP1B primer probe sets were used to measure mRNA levels. Results with Primer Probe Set (PPS) 198 are shown in Table 86, and results with Primer Probe Set (PPS) 3000 are shown in Table 87. Results are presented as percent inhibition of PTP1B mRNA expression relative to untreated control cells.

PCSK9 mRNA = format: cell-based, human; conditions: Hep3B cells, 100 nM, relative to untreated control cells; for % Inhib: 0 = no reduction observed
Description: When cells reached appropriate confluency, they were treated with oligonucleotide using LIPOFECTIN® as described. […] Cells were treated and data were obtained in duplicate or triplicate. […] Cells were harvested 16-24 hours after oligonucleotide treatment.
Prior to quantitative PCR analysis, primer-probe sets specific to the target gene being measured were evaluated for their ability to be “multiplexed” with a GAPDH amplification reaction. After isolation the RNA is subjected to sequential reverse transcriptase (RT) reaction and real-time PCR, both of which are performed in the same well. RT and PCR reagents were obtained from Invitrogen Life Technologies (Carlsbad, Calif.). […] The RT reaction was carried out by incubation for 30 minutes at 48° C. Following a 10 minute incubation at 95° C. to activate the PLATIN 9M® Taq, 40 cycles of a two-step PCR protocol were carried out: 95° C. for 15 seconds (denaturation) followed by 60° C. for 1.5 minutes (annealing/extension).
170 μL of RiboGreen® working reagent (RiboGreen® reagent diluted 1:350 in 10 mM Tris-HCl, 1 mM EDTA, pH 7.5) was pipetted into a 96-well plate containing 30 μL purified cellular RNA. The plate was read in a CytoFluor® 4000 (PE Applied Biosystems) with excitation at 485 nm and emission at 530 nm.
Short antisense compounds targeted to a PCSK9 nucleic acid were tested for their effects on PCSK9 mRNA in vitro. The Isis No, gapmer motif and SEQ ID NO of each short antisense compound are shown again in Table 75. Cultured Hep3B cells were treated with 100 nM of short antisense compound. 5-10-5 MOE gapmers targeted to a PCSK9 nucleic acid were used as positive controls. After the treatment period, RNA was isolated from the cells and PCSK9 mRNA levels were measured by quantitative real-time PCR, as described herein. PCSK9 mRNA levels were adjusted according to total RNA content as measured by RIBOGREEN®. Results are presented in Table 75 as percent inhibition of PCSK9 (% Inhib), relative to untreated control cells.

Substance	% Inhibition (PTP1B mRNA; PPS 198, 1.11 nM) [%]	% Inhibition (PTP1B mRNA; PPS 198, 3.33 nM) [%]	% Inhibition (PTP1B mRNA; PPS 198, 10.0 nM) [%]	% Inhibition (PTP1B mRNA; PPS 198, 30.0 nM) [%]	% Inhibition (PTP1B mRNA; PPS 3000, 1.11 nM) [%]	% Inhibition (PTP1B mRNA; PPS 3000, 3.33 nM) [%]	% Inhibition (PTP1B mRNA; PPS 3000, 10.0 nM) [%]	% Inhibition (PTP1B mRNA; PPS 3000, 30.0 nM) [%]	% Inhib (PCSK9 mRNA) [%]	% Inhibition Range (PCSK9 mRNA)
398105 (eT*eG*d[5mC]*dA*d[5mC]*dA*dG*dG*d[5mC]*dA*dG*dG*eT*eT) [compound 398105]	0	25	79	90	0	35	79	93	–	–
398112 (e[5mC]*eA*dG*d[5mC]*d[5mC]*dT*dG*dG*d[5mC]*dA*d[5mC]*d[5mC]*eT*eA) [compound 398112]	1	10	73	93	0	26	77	94	–	–
398120 (eG*eT*dT*d[5mC]*dA*dA*dG*d[5mC]*dG*dG*d[5mC]*d[5mC]*eT*eA) [compound 398120]	0	31	80	96	0	35	79	93	–	–
398173 (e[5mC]*dA*dG*d[5mC]*d[5mC]*dT*dG*dG*dG*d[5mC]*dA*e[5mC]) [compound 398173]	0	4	80	97	0	18	80	90	–	–
399096 (eT*eG*d[5mC]*dT*d[5mC]*dG*dA*dA*d[5mC]*dT*d[5mC]*d[5mC]*eT*eT; antisense) [compound 399096]	3	30	78	96	0	23	75	94	–	–
399102 (eG*eA*dA*dG*dT*d[5mC]*dA*d[5mC]*dT*dG*dG*d[5mC]*eT*eT; antisense) [compound 399102]	0	15	62	88	0	9	60	87	–	–
399113 (eG*eT*dT*dA*dG*dG*d[5mC]*dA*dA*dA*dG*dG*eG*e[5mC]; antisense) [compound 399113]	0	31	72	90	0	9	65	90	–	–
399132 (eG*eG*dG*d[5mC]*dT*dG*dA*dG*dT*dG*dA*d[5mC]*e[5mC]*e[5mC]; antisense) [compound 399132]	0	32	75	95	0	26	76	91	–	–
399173 (eA*eT*dG*d[5mC]*dT*dA*dG*dT*dG*d[5mC]*dA*d[5mC]*eT*eA; antisense) [compound 399173]	0	24	63	89	0	11	59	92	–	–
399208 (eA*eG*d[5mC]*dT*d[5mC]*dG*d[5mC]*dT*dA*d[5mC]*d[5mC]*dT*e[5mC]*eT; antisense) [compound 399208]	0	37	86	93	0	47	85	96	–	–
400361 (antisense eG*eG*d[5mC]*dA*dG*d[5mC]*dA*dG*dA*dT*dG*dG*e[5mC]*eA) [compound 400361]	–	–	–	–	–	–	–	–	2	–
400362 (antisense e[5mC]*eG*dG*d[5mC]*dA*dG*d[5mC]*dA*dG*dA*dT*dG*eG*e[5mC]) [compound 400362]	–	–	–	–	–	–	–	–	16	10-20%
400363 (antisense e[5mC]*e[5mC]*dG*dG*d[5mC]*dA*dG*d[5mC]*dA*dG*dA*dT*eG*eG) [compound 400363]	–	–	–	–	–	–	–	–	8	–
400364 (antisense eT*e[5mC]*d[5mC]*dG*dG*d[5mC]*dA*dG*d[5mC]*dA*dG*dA*eT*eG) [compound 400364]	–	–	–	–	–	–	–	–	0	–
400365 (antisense e[5mC]*eT*d[5mC]*d[5mC]*dG*dG*d[5mC]*dA*dG*d[5mC]*dA*dG*eA*eT) [compound 400365]	–	–	–	–	–	–	–	–	25	20-30%
400366 (antisense eG*e[5mC]*dT*d[5mC]*d[5mC]*dG*dG*d[5mC]*dA*dG*d[5mC]*dA*eG*eA) [compound 400366]	–	–	–	–	–	–	–	–	15	10-20%
400367 (antisense eG*eG*d[5mC]*dT*d[5mC]*d[5mC]*dG*dG*d[5mC]*dA*dG*d[5mC]*eA*eG) [compound 400367]	–	–	–	–	–	–	–	–	12	10-20%
400368 (antisense e[5mC]*eG*dG*d[5mC]*dT*d[5mC]*d[5mC]*dG*dG*d[5mC]*dA*dG*e[5mC]*eA) [compound 400368]	–	–	–	–	–	–	–	–	11	10-20%
400369 (antisense e[5mC]*e[5mC]*dG*dG*d[5mC]*dT*d[5mC]*d[5mC]*dG*dG*d[5mC]*dA*eG*e[5mC]) [compound 400369]	–	–	–	–	–	–	–	–	0	–
400370 (antisense eG*e[5mC]*d[5mC]*dG*dG*d[5mC]*dT*d[5mC]*d[5mC]*dG*dG*d[5mC]*eA*eG) [compound 400370]	–	–	–	–	–	–	–	–	13	10-20%
400371 (antisense eA*eG*dT*dT*dA*d[5mC]*dA*dA*dA*dA*dG*d[5mC]*eA*eA) [compound 400371]	–	–	–	–	–	–	–	–	0	–

— patent US8372967B2, “Compounds and methods for modulating expression of GCCR” (Isis Pharmaceuticals, Inc., priority 2006, dated 2013)
